The values that follow come from patent US11459375B2, “Cyclic peptides for the treatment of Graves' disease” (advanceCOR GmbH, priority 2017, dated 2022).

Peptide text beside a SMILES is read from it.

Series [1] concerns immunologically naïve mice. The note with it: mouse, in vivo, iv, 1 mg/kg.
Procedure: BALB/c mice were adapted for at least one week to start experiments at the age of 12 weeks. Animals were kept as described before. […] Peptides (either 1 mg/kg body weight or NaCl vehicle control) were given by IV injection into a tail vein of these naïve mice (n=5 per group), and then continued at 4-weekly intervals for 6 months, as described before for the therapeutic study in immunized mice. Serum samples were taken at identical intervals.
1) “3rd generation assay”: Antibodies against TSHR were detected by a commercially available 3rd generation enzyme immunoassay provided by RSR Limited, Avenue Park, Pentwyn, Cardiff, U.K., in which the of the human Graves patient-derived M22 monoclonal antibody and serum antibodies compete for binding sites on immobilized TSHR. […] The assay was performed using 30 μl 1:10 (PBS) diluted serum in at least double determination according to the manufacturer's instructions.
Series [2] deals with Ad-TSHR-immunized mice. The experiment in a line: clinical signs of allergic reaction during therapy of immunized mice. The class given is in vivo, BALB/c mice. The following applies: 1 mg/kg IV, had to be treated with clemastin. The procedure: The study protocol used three 3-weekly immunizations (“initiation”) and followed by a “maintenance” phase with further regular 4-weekly boosts until the 9th immunisation, as described before (22). Mice were randomly assigned to therapeutic groups. Therapy (either 1 mg/kg body weight peptides or 0.9% NaCl vehicle control) was given 1 week after the 4th immunization by IV injection into a tail vein, and then continued at 4-weekly intervals, as described before for the treatment of anti-β1AR (16). The fusion protein TSHR-Fc was given IV at identical times at doses of 1 mg/kg, but had to be applied together with the histamine receptor blocker clemastin (Tavegil®) at a dose of 0.02 mg per mouse (25 g body weight) to avoid clinical symptoms of allergic reaction, which had been observed in initial pilot studies of TSHR-Fc administration in mice.

Series [3] deals with TSHR-overexpressing CHO cells JP2626. The experiment in a line: ex vivo TSHR-dependent cAMP stimulation in test cells. The following applies: 100 μg/ml test substance, anti-TSHR-antibody positive samples. It is filed as cell-based, human. The method, then:
(§1) In FIG. 8 the effects of peptides on anti-TSHR antibody titers (A) and on cAMP stimulation in TSHR-expressing test cells (B) were studied ex vivo (anti-TSHR-antibody positive serum samples). Each measurement was carried out in 4 samples. Results are shown as % of untreated controls with standard errors of the means (SEM). Significance was tested by analysis of variance (ANOVA) between groups, followed by LSD post-hoc testing. **p<0.001, compared to controls
To investigate effects on TSHR-dependent cAMP stimulation ex vivo, TSHR-overexpressing CHO cells JP2626 were prepared as described above. Then, 100 μg/ml peptide 829, peptide of the invention 836 or fusion protein TSHR-Fc were added to the JP2626 cells. After incubation for 2.5 hours at 37° C. the cAMP release in the medium was measured in duplicates by a competitive immunoassay ELISA (#EMSCAMPL, Thermo Fisher Scientific, Waltham, Mass., USA).

Series [4] relates to monoclonal M22 antibody binding to TSHR. In words: direct binding/scavenging of anti-TSHR antibody M22 (modified 3rd generation titer assay). The arrangement: species or system human. The following applies: 100 μg/mL test substance, M22 final concentration 10 ng/mL. The method, then:
as §1
In order to investigate the direct binding of peptides to anti-TSHR antibodies, Roche's Cobas® assay (04388790) for ECLIA was used with minor modifications: 30 μl of the diluted monoclonal M22-Bio antibody was mixed with 30 μl diluted peptide or TSHR-Fc (final concentration of 100 μg/ml in PBS) and added to the TSHR-pre-coated microtiter plate. After an incubation step for 2 h at room temperature the protocol was continued according to the manufacturer's instructions.

Series [5] relates to Ad-TSHR-immunized mice. The experiment in a line: qualitative histological investigation of the thyroid. It is filed as in vivo, BALB/c mice. The following applies: 9x AdTSHR-treated mice, 1 mg/kg IV 4-weekly. The procedure: After euthanasia, dissection of the thyroid glands was performed under a stereomicroscope, as described before (22). Briefly, cross cuts at the level above the larynx and below the seventh cartilage ring were made and the glands with the tracheae and oesophagi were removed from the necks. Tissue blocks were kept in 4% neutral para-formaldehyde (PFA), washed in PBS 3 times and embedded in optimum cutting temperature (OCT) formulation (Tissue-Tek® O.C.T.™ compound, VWR Chemicals, Leuven, Belgium). Consecutive 5 μm-thick cross sections were cut at a fixed distance of 500 μm using a Leica microtome CM 1850 Cryostat (temperature at −19° C.) and mounted on Thermo Polysine slides (Thermo Scientific, Cat J2800AMNZ). The collected sections represented a total distance of ˜5-6 mm, and covered the whole thyroid region of each animal. The tissue sections were then stained with hematoxylin-eosin (HE) and examined using bright field illumination on a Zeiss upright microscope. Thyroid volumes (mm^3) were calculated from the sum of the areas of each section over the whole cutting region. Myocardial volumes (mm^3) were calculated in a similar way as described for thyroid glands from the sum of the areas of each section over whole cutting region (5 to 6 slides, depending on respective size of the hearts). The method has been described before (22). […]

Take `CC[C@H](C)[C@@H]1NC(=O)[C@H](C(C)C)NC(=O)[C@H]([C@@H](C)O)NC(=O)[C@H](CC(C)C)NC(=O)[C@H](Cc2ccc(O)cc2)NC(=O)[C@H](CCCCN)NC(=O)[C@H](CC(N)=O)NC(=O)[C@H](CCCCN)NC(=O)[C@H](CC(N)=O)NC(=O)[C@H](CC(C)C)NC(=O)[C@H](Cc2ccc(O)cc2)NC(=O)[C@H](C(C)C)NC(=O)[C@H](C)NC(=O)[C@H](CC(=O)O)NC(=O)[C@H](CC(C)C)NC(=O)[C@H](CCCCN)NC(=O)[C@H]([C@@H](C)O)NC(=O)CNC(=O)[C@H](CC(N)=O)NC(=O)[C@H](Cc2ccccc2)NC(=O)[C@H](C)NC(=O)[C@H](Cc2ccc(O)cc2)NC(=O)CNC(=O)[C@H](CC(=O)O)NC1=O` [peptide 836] (cyclo(GYAFNGTKLDAVYLNKNKYLTVID)): in series [1], the “anti-TSHR antibody titers in naive mice” value was “below background” and the “generation of anti-TSHR antibodies” value is listed as “not observed in any of the 6 animals”.
With “TSHR-Fc: fusion protein: first 289 amino acids of human TSH receptor (A-subunit), GGR linker and Fc portion of human IgG2”, in series [2], the “clinical signs of allergic reactions” value was “clinical signs of allergic reactions”. Also, the “cAMP-stimulating potency in TSHR-expressing test cells ex vivo” value in series [3] was “reduction of titer and activity”. The “anti-TSHR antibody titers (M22 binding to its substrate)” value in series [4] is reported as “significantly reduced anti-TSHR antibody titers”. For the same compound, in series [5], the “mean histological scores of the thyroid” value was “markedly better compared to the vehicle-treated group”.
